# From the supplement of paper PMC10307832
# How the values were obtained:
# Experiment in all cases: relative viability (nuclei count vs DMSO), 5 days (fraction); higher = more cells survive
# COR-L23 = tested on: COR-L23
# Procedure, shortened: (§1)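 One day after seeding in 1536-well plates, lung cancer cell lines were dosed by pin tool. Dosing was either single-drug or a fixed anchor-drug dose plus five library-drug doses (not always all listed) in √10 steps. After 5 days, nuclei were stained in one fix-and-stain step and counted on 4× images, and relative viability is the nuclei count of treated wells over that of vehicle wells, given as the median of duplicate plates.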
# SK-MES-1 = tested on: SK-MES-1
# Procedure, shortened: as §1
# NCI-H1437 = tested on: NCI-H1437
# Procedure, shortened: as §1
# NCI-H1651 = tested on: NCI-H1651
# Procedure, shortened: as §1
# Calu-6 = tested on: Calu-6
# Procedure, shortened: as §1
# EBC-1 = tested on: EBC-1
# Procedure, shortened: as §1
# NCI-H1299 = tested on: NCI-H1299
# Procedure, shortened: as §1
# IA-LM = tested on: IA-LM
# Procedure, shortened: as §1
# ChaGo-K-1 = tested on: ChaGo-K-1
# Procedure, shortened: as §1
# SW 1573 = tested on: SW 1573
# Procedure, shortened: as §1
# ABC-1 = tested on: ABC-1
# Procedure, shortened: as §1
# NCI-H1703 = tested on: NCI-H1703
# Procedure, shortened: as §1
# A549 = tested on: A549
# Procedure, shortened: as §1
compound,measurement,setting,value
O=c1cc(N2CCOCC2)oc2c(-c3cccc4c3sc3ccccc34)cccc12 + C[C@@H](Oc1cc(-c2cnn(C3CCNCC3)c2)cnc1N)c1c(Cl)ccc(F)c1Cl [Crizotinib] (partner 1 µM),relative viability,COR-L23; first compound 0.01 µM,0.62
same,relative viability,COR-L23; first compound 0.03162 µM,0.732
same,relative viability,COR-L23; first compound 0.1 µM,0.819
same,relative viability,COR-L23; first compound 0.3162 µM,0.638
same,relative viability,COR-L23; first compound 1 µM,0.597
same,relative viability,SK-MES-1; first compound 0.01 µM,0.965
same,relative viability,SK-MES-1; first compound 0.03162 µM,0.991
same,relative viability,SK-MES-1; first compound 0.1 µM,1.01
same,relative viability,SK-MES-1; first compound 0.3162 µM,1.01
same,relative viability,SK-MES-1; first compound 1 µM,1.04
same,relative viability,NCI-H1437; first compound 0.01 µM,0.963
same,relative viability,NCI-H1437; first compound 0.03162 µM,0.896
same,relative viability,NCI-H1437; first compound 0.1 µM,0.959
same,relative viability,NCI-H1437; first compound 0.3162 µM,0.915
same,relative viability,NCI-H1437; first compound 1 µM,0.82
same,relative viability,NCI-H1651; first compound 0.01 µM,0.878
same,relative viability,NCI-H1651; first compound 0.03162 µM,0.92
same,relative viability,NCI-H1651; first compound 0.1 µM,0.948
same,relative viability,NCI-H1651; first compound 0.3162 µM,0.853
same,relative viability,NCI-H1651; first compound 1 µM,0.859
same,relative viability,Calu-6; first compound 0.01 µM,0.858
same,relative viability,Calu-6; first compound 0.03162 µM,0.857
same,relative viability,Calu-6; first compound 0.1 µM,0.793
same,relative viability,Calu-6; first compound 0.3162 µM,0.759
same,relative viability,Calu-6; first compound 1 µM,0.777
same,relative viability,EBC-1; first compound 0.01 µM,0.208
same,relative viability,EBC-1; first compound 0.03162 µM,0.227
same,relative viability,EBC-1; first compound 0.1 µM,0.207
same,relative viability,EBC-1; first compound 0.3162 µM,0.221
same,relative viability,EBC-1; first compound 1 µM,0.204
same,relative viability,NCI-H1299; first compound 0.01 µM,0.949
same,relative viability,NCI-H1299; first compound 0.03162 µM,0.954
same,relative viability,NCI-H1299; first compound 0.1 µM,0.973
same,relative viability,NCI-H1299; first compound 0.3162 µM,0.637
same,relative viability,NCI-H1299; first compound 1 µM,0.923
same,relative viability,IA-LM; first compound 0.01 µM,0.965
same,relative viability,IA-LM; first compound 0.03162 µM,0.694
same,relative viability,IA-LM; first compound 0.1 µM,0.683
same,relative viability,IA-LM; first compound 0.3162 µM,0.732
same,relative viability,IA-LM; first compound 1 µM,0.621
same,relative viability,ChaGo-K-1; first compound 0.01 µM,1.17
same,relative viability,ChaGo-K-1; first compound 0.03162 µM,1.16
same,relative viability,ChaGo-K-1; first compound 0.1 µM,1.23
same,relative viability,ChaGo-K-1; first compound 0.3162 µM,1.08
same,relative viability,ChaGo-K-1; first compound 1 µM,1.08
same,relative viability,SW 1573; first compound 0.01 µM,0.787
same,relative viability,SW 1573; first compound 0.03162 µM,0.805
same,relative viability,SW 1573; first compound 0.1 µM,0.808
same,relative viability,SW 1573; first compound 0.3162 µM,0.74
same,relative viability,SW 1573; first compound 1 µM,0.752
same,relative viability,ABC-1; first compound 0.01 µM,1.26
same,relative viability,ABC-1; first compound 0.03162 µM,0.654
same,relative viability,ABC-1; first compound 0.1 µM,0.983
same,relative viability,ABC-1; first compound 0.3162 µM,1.06
same,relative viability,ABC-1; first compound 1 µM,1.11
same,relative viability,NCI-H1703; first compound 0.01 µM,0.769
same,relative viability,NCI-H1703; first compound 0.03162 µM,0.604
same,relative viability,NCI-H1703; first compound 0.1 µM,0.918
same,relative viability,NCI-H1703; first compound 0.3162 µM,0.584
same,relative viability,NCI-H1703; first compound 1 µM,0.591
same,relative viability,A549; first compound 0.01 µM,0.771
same,relative viability,A549; first compound 0.03162 µM,0.769
same,relative viability,A549; first compound 0.1 µM,0.746
same,relative viability,A549; first compound 0.3162 µM,0.828
same,relative viability,A549; first compound 1 µM,0.659
CCN(CC)CCCCNc1ncc2cc(-c3cc(OC)cc(OC)c3)c(NC(=O)NC(C)(C)C)nc2n1 + C[C@@H](Oc1cc(-c2cnn(C3CCNCC3)c2)cnc1N)c1c(Cl)ccc(F)c1Cl [Crizotinib] (partner 1 µM),relative viability,COR-L23; first compound 0.01 µM,0.697
same,relative viability,COR-L23; first compound 0.03162 µM,0.656
same,relative viability,COR-L23; first compound 0.1 µM,0.824
same,relative viability,COR-L23; first compound 0.3162 µM,0.584
same,relative viability,COR-L23; first compound 1 µM,0.759
same,relative viability,SK-MES-1; first compound 0.01 µM,1.06
same,relative viability,SK-MES-1; first compound 0.03162 µM,1.05
same,relative viability,SK-MES-1; first compound 0.1 µM,1.14
same,relative viability,SK-MES-1; first compound 0.3162 µM,1.03
same,relative viability,SK-MES-1; first compound 1 µM,1.01
same,relative viability,NCI-H1437; first compound 0.01 µM,1.12
same,relative viability,NCI-H1437; first compound 0.03162 µM,0.993
same,relative viability,NCI-H1437; first compound 0.1 µM,0.987
same,relative viability,NCI-H1437; first compound 0.3162 µM,1.16
same,relative viability,NCI-H1437; first compound 1 µM,0.756
same,relative viability,NCI-H1651; first compound 0.01 µM,0.925
same,relative viability,NCI-H1651; first compound 0.03162 µM,0.851
same,relative viability,NCI-H1651; first compound 0.1 µM,0.945
same,relative viability,NCI-H1651; first compound 0.3162 µM,0.909
same,relative viability,NCI-H1651; first compound 1 µM,0.828
same,relative viability,Calu-6; first compound 0.01 µM,0.943
same,relative viability,Calu-6; first compound 0.03162 µM,0.784
same,relative viability,Calu-6; first compound 0.1 µM,0.899
same,relative viability,Calu-6; first compound 0.3162 µM,1.02
same,relative viability,Calu-6; first compound 1 µM,0.712
same,relative viability,EBC-1; first compound 0.01 µM,0.209
same,relative viability,EBC-1; first compound 0.03162 µM,0.189
same,relative viability,EBC-1; first compound 0.1 µM,0.242
same,relative viability,EBC-1; first compound 0.3162 µM,0.213
same,relative viability,EBC-1; first compound 1 µM,0.187
same,relative viability,NCI-H1299; first compound 0.01 µM,1
same,relative viability,NCI-H1299; first compound 0.03162 µM,0.912
same,relative viability,NCI-H1299; first compound 0.1 µM,1.02
same,relative viability,NCI-H1299; first compound 0.3162 µM,0.972
same,relative viability,NCI-H1299; first compound 1 µM,0.89
same,relative viability,IA-LM; first compound 0.01 µM,0.766
same,relative viability,IA-LM; first compound 0.03162 µM,0.629
same,relative viability,IA-LM; first compound 0.1 µM,1.02
same,relative viability,IA-LM; first compound 0.3162 µM,0.97
same,relative viability,IA-LM; first compound 1 µM,0.932
same,relative viability,ChaGo-K-1; first compound 0.01 µM,1.24
same,relative viability,ChaGo-K-1; first compound 0.03162 µM,1.08
same,relative viability,ChaGo-K-1; first compound 0.1 µM,1.09
same,relative viability,ChaGo-K-1; first compound 0.3162 µM,1.32
same,relative viability,ChaGo-K-1; first compound 1 µM,1.06
same,relative viability,SW 1573; first compound 0.01 µM,0.69
same,relative viability,SW 1573; first compound 0.03162 µM,0.813
same,relative viability,SW 1573; first compound 0.1 µM,1.05
same,relative viability,SW 1573; first compound 0.3162 µM,0.774
same,relative viability,SW 1573; first compound 1 µM,0.722
same,relative viability,ABC-1; first compound 0.01 µM,1.53
same,relative viability,ABC-1; first compound 0.03162 µM,1.34
same,relative viability,ABC-1; first compound 0.1 µM,1.18
same,relative viability,ABC-1; first compound 0.3162 µM,1.09
same,relative viability,ABC-1; first compound 1 µM,0.905
same,relative viability,NCI-H1703; first compound 0.01 µM,0.495
same,relative viability,NCI-H1703; first compound 0.03162 µM,0.584
same,relative viability,NCI-H1703; first compound 0.1 µM,0.986
same,relative viability,NCI-H1703; first compound 0.3162 µM,0.586
same,relative viability,NCI-H1703; first compound 1 µM,0.799
same,relative viability,A549; first compound 0.01 µM,0.782
same,relative viability,A549; first compound 0.03162 µM,0.854
same,relative viability,A549; first compound 0.1 µM,0.961
same,relative viability,A549; first compound 0.3162 µM,0.805
same,relative viability,A549; first compound 1 µM,0.655
